Test: xn = mol fraction of the nth substance listed
Conditions: Liquid, Vibrating tube method

CC(C)OC(C)C [diisopropyl ether] + CC(C)O
mass density [kg/m3]
Conditions | x2 = 0.1503 | x2 = 0.2979 | x2 = 0.4228 | x2 = 0.5 | x2 = 0.6737 | x2 = 0.8483
333.15 K, 130000 kPa | – | – | – | 807.2 | 815.2 | 824.7
333.15 K, 140000 kPa | 799.3 | 804.1 | 808.6 | 811.9 | 819.7 | 829.1
353.19 K, 1000 kPa | 665.8 | 673.2 | 680.7 | 685.4 | 698.3 | 713.7
353.19 K, 5000 kPa | 673.7 | 680.7 | 687.7 | 692.4 | 704.7 | 719.5
353.19 K, 10000 kPa | 682.3 | 689.1 | 695.5 | 700.2 | 711.9 | 726.1
353.19 K, 15000 kPa | 690 | 696.5 | 702.7 | 707.2 | 718.5 | 732.2
353.19 K, 20000 kPa | 696.9 | 703.2 | 709.2 | 713.6 | 724.5 | 737.7
353.19 K, 25000 kPa | 703.3 | 709.3 | 715.3 | 719.5 | 730.1 | 742.9
353.19 K, 30000 kPa | 709.2 | 715.1 | 720.9 | 725 | 735.3 | 747.8
353.19 K, 35000 kPa | 714.7 | 720.5 | 726.2 | 730.1 | 740.2 | 752.4
353.19 K, 40000 kPa | 719.8 | 725.4 | 731.2 | 734.9 | 744.8 | 756.7
353.19 K, 45000 kPa | 724.6 | 730.2 | 735.9 | 739.5 | 749.2 | 760.8
353.19 K, 50000 kPa | 729.4 | 734.8 | 740.3 | 743.9 | 753.5 | 764.9
353.19 K, 55000 kPa | 733.7 | 739 | 744.5 | 748 | 757.3 | 768.6
353.19 K, 60000 kPa | 737.8 | 743.1 | 748.6 | 752 | 761.1 | 772.2
353.19 K, 65000 kPa | 741.9 | 747.1 | 752.5 | 755.8 | 764.9 | 775.8
353.19 K, 70000 kPa | 745.7 | 750.9 | 756.2 | 759.5 | 768.4 | 779.2
353.19 K, 80000 kPa | 752.9 | 758 | 763.2 | 766.3 | 775 | 785.5
353.19 K, 90000 kPa | 759.7 | 764.7 | 769.7 | 772.8 | 781.4 | 791.6
353.19 K, 100000 kPa | 766 | 770.8 | 775.8 | 778.9 | 787.2 | 797.2
353.19 K, 110000 kPa | 772 | 776.8 | 781.5 | 784.7 | 792.9 | 802.7
353.19 K, 120000 kPa | 777.6 | 782.3 | 786.9 | 790.1 | 798.1 | 807.7
353.19 K, 130000 kPa | 782.9 | 787.6 | 792.1 | 795.2 | 803.1 | 812.6
353.19 K, 140000 kPa | 788.1 | 792.7 | 797 | 800.2 | 808 | 817.4
373.24 K, 1000 kPa | 641 | 648.3 | 655.6 | 660.4 | 673.6 | 689.6
373.24 K, 5000 kPa | 650.7 | 657.5 | 664.2 | 669 | 681.4 | 696.7
373.24 K, 10000 kPa | 661 | 667.6 | 673.7 | 678.3 | 690.1 | 704.5
373.24 K, 15000 kPa | 670 | 676.2 | 682.1 | 686.6 | 697.9 | 711.6
373.24 K, 20000 kPa | 678.1 | 684.1 | 689.7 | 694 | 704.8 | 718
373.24 K, 25000 kPa | 685.3 | 691.1 | 696.6 | 700.8 | 711.2 | 724
373.24 K, 30000 kPa | 692 | 697.6 | 703 | 707 | 717.1 | 729.5
373.24 K, 35000 kPa | 698.1 | 703.6 | 708.9 | 712.8 | 722.6 | 734.7
373.24 K, 40000 kPa | 703.9 | 709.2 | 714.5 | 718.1 | 727.8 | 739.6
373.24 K, 45000 kPa | 709.2 | 714.5 | 719.6 | 723.3 | 732.7 | 744.3
373.24 K, 50000 kPa | 714.2 | 719.3 | 724.5 | 728 | 737.2 | 748.6
373.24 K, 55000 kPa | 719.1 | 724.1 | 729.2 | 732.6 | 741.7 | 752.7
373.24 K, 60000 kPa | 723.5 | 728.5 | 733.6 | 736.9 | 745.8 | 756.7
373.24 K, 65000 kPa | 727.8 | 732.8 | 737.8 | 741.1 | 749.8 | 760.5
373.24 K, 70000 kPa | 732 | 736.8 | 741.8 | 745 | 753.6 | 764.2
373.24 K, 80000 kPa | 739.7 | 744.5 | 749.3 | 752.6 | 760.9 | 771.2
373.24 K, 90000 kPa | 747 | 751.7 | 756.3 | 759.4 | 767.7 | 777.7
373.24 K, 100000 kPa | 753.7 | 758.3 | 762.8 | 765.9 | 774 | 783.8
373.24 K, 110000 kPa | 760 | 764.5 | 768.9 | 772 | 779.9 | 789.5
373.24 K, 120000 kPa | 765.9 | 770.4 | 774.7 | 777.8 | 785.5 | 795
373.24 K, 130000 kPa | 771.6 | 776 | 780.2 | 783.3 | 790.9 | 800.2
373.24 K, 140000 kPa | 776.9 | 781.3 | 785.3 | 788.5 | 796 | 805.1
393.28 K, 1000 kPa | 614.1 | 620.6 | 627.9 | 632.9 | 645.9 | 662.5
393.28 K, 5000 kPa | 626.4 | 632.4 | 638.9 | 643.7 | 655.9 | 671.3
393.28 K, 10000 kPa | 639 | 644.7 | 650.5 | 655.2 | 666.5 | 680.9
393.28 K, 15000 kPa | 649.7 | 655.1 | 660.6 | 665.1 | 675.7 | 689.4
393.28 K, 20000 kPa | 658.9 | 664.1 | 669.5 | 673.7 | 683.9 | 696.9
393.28 K, 25000 kPa | 667.1 | 672.2 | 677.4 | 681.4 | 691.2 | 703.8
393.28 K, 30000 kPa | 674.7 | 679.5 | 684.6 | 688.5 | 698 | 710.1
393.28 K, 35000 kPa | 681.5 | 686.3 | 691.3 | 695.1 | 704.2 | 716
393.28 K, 40000 kPa | 687.8 | 692.5 | 697.4 | 701 | 710.1 | 721.5
393.28 K, 45000 kPa | 693.6 | 698.2 | 703.2 | 706.6 | 715.4 | 726.6
393.28 K, 50000 kPa | 699.1 | 703.7 | 708.6 | 711.8 | 720.5 | 731.5
393.28 K, 55000 kPa | 704.5 | 708.9 | 713.6 | 716.9 | 725.4 | 736.2
393.28 K, 60000 kPa | 709.2 | 713.7 | 718.4 | 721.6 | 729.9 | 740.5
393.28 K, 65000 kPa | 713.9 | 718.3 | 723 | 726 | 734.3 | 744.7
393.28 K, 70000 kPa | 718.4 | 722.8 | 727.3 | 730.4 | 738.5 | 748.8
393.28 K, 80000 kPa | 726.7 | 731 | 735.5 | 738.5 | 746.4 | 756.3
393.28 K, 90000 kPa | 734.4 | 738.6 | 742.9 | 746.1 | 753.7 | 763.4
393.28 K, 100000 kPa | 741.5 | 745.6 | 749.9 | 752.9 | 760.4 | 769.9
393.28 K, 110000 kPa | 748.3 | 752.4 | 756.4 | 759.5 | 766.8 | 776.1
393.28 K, 120000 kPa | 754.5 | 758.5 | 762.5 | 765.5 | 772.8 | 781.8
393.28 K, 130000 kPa | 760.4 | 764.4 | 768.3 | 771.3 | 778.4 | 787.4
393.28 K, 140000 kPa | 766.1 | 770 | 773.8 | 776.8 | 783.9 | 792.7

Reference: the NIST ThermoML archive (doi:10.1016/j.fluid.2018.04.012)
